# pIC50: −log10 of the molar value. Entries after “also recorded” stand apart in the source; their conditions may differ. Read-outs that look alike come from different tables or passages of the source.
# Key:
# [1] = system: B cell receptor (BCR) mediated phosphorylation cascade; assay: Murine B cell assay, phosphotyrosine blot; type: cell-based; design: dose or concentration left out as unconfirmed; details: 30 minutes, anti-IgM stimulation
# Description: Murine B Cell Assay: Splenic lymphocytes were isolated from 6-20 week old Balb/c or C57/B6 mice. The cells were washed out of the spleen into RPMI media containing 1 mg/mL DNase in and the red blood cells were lysed in 17 mM tris-ammonium chloride, pH 7.2, Approximately 4x10^6 cells were incubated at 37°C for 30 minutes with […] of 3g or 2 in 1.1% DMSO. B cell stimulation was initiated by the addition of 2 mg of goat anti-mouse IgM (Jackson Immuno Research, cat# 115-005-075) and subsequent incubation for 5 minutes at 37(C. The cells were isolated by centrifugation (13,000 rpm, 2 min) and lysed (lysis buffer: 1% Triton X-100, 50 mM tris pH 7.4, 2 mM EDTA, 150 mM NaCl, […] PMSF, 2 mM sodium orthovanadate, 10 mg/mL leupeptin, 10 mg/mL apoprotin). The cellular debris was then pelleted at 13,000 rpm for 15 min. Cellular proteins were separated by 10% polyacrylamide gel electrophoresis and transferred to a nitrocellulose membrane by Western blotting. Phosphotyrosine containing proteins were visualized by immunoblotting with anti-phosphotyrosine antibody (Upstate Biotechnology, Inc.).
# I338G v-Src [2] = molecular target: T1, I338G v-Src (Rous sarcoma virus subgroup A, UniProt P00524, DEL77-225/I338G); assay: biochemical; type: biochemical
# T1 construct: catalytic domain of the target kinase, I338G v-Src, which was expressed in bacteria and purified as a glutathione-S-transferase (GST) fusion protein; made in house; host or cells: E. coli DH5a, pGEX-KT
# [3] = system: I338G v-Src transformed NIH3T3 cells; assay: Inhibition of v-Src in NIH3T3 fibroblasts, phosphotyrosine blot; type: cell-based, murine
# Jurkat cells = assay: Tyrosine phosphorylation in pervanadate treated Jurkat cells; type: cell-based, human; details: 500nM 6a, 30 min, then 0.5 mM pervanadate
# [4] = system: WT v-Src transformed NIH3T3 fibroblasts; assay: Microscopy of cell morphology and polymerized actin; type: cell-based, murine; details: 250 nM 6a, 16 hours
# [5] = system: I338G v-Src transformed NIH3T3 fibroblasts; assay: as above; type: cell-based, murine
# WT v-Src = molecular target: T2, WT v-Src (Rous sarcoma virus subgroup A, UniProt P00524, DEL77-225); assay: biochemical; type: biochemical; design: in vitro inhibition of WT v-Src / inhibition of WT v-Src: dose or concentration left out as unconfirmed
# T2 construct: glutathione-S-transferase fusion proteins of wild type v-Src catalytic domain, I338G v-Src SH1, and WT Fyn into the pGEX-KT plasmid; GST (N); made in house; host or cells: E. coli DH5a, pGEX-KT
# [6] = system: WT v-Src transformed NIH3T3 cells; assay: Inhibition of v-Src in NIH3T3 fibroblasts, phosphotyrosine blot; type: cell-based, murine
# I338G v-Src [7] = assay: biochemical; type: biochemical; details: for increase in affinity over previously optimized inhibitors of wild type kinases: versus PP1 on Fyn
# [8] = system: wild-type protein tyrosine kinase; assay: Screening of nucleotide analogs in murine lymphocyte lysate, anti-phosphotyrosine immunoblot; type: biochemical; details: 100 uM nucleotide triphosphate, 37°C, 5 min
# PKA = molecular target: T3, PKA (Homo sapiens, UniProt P17612); assay: In vitro kinase inhibition assay; type: biochemical; details: concentrations up to 300 mM
# T3 construct: purchased Pierce
# Excerpt: (§1) PKA was purchased (Pierce) and used without further purification.
# T339G Fyn = molecular target: T4, T339G Fyn (Homo sapiens, UniProt P06241, T342G); assay: In vitro kinase inhibition assay; type: biochemical
# T4 construct: GST (N); made in house; host or cells: E. coli DH5a, pGEX-KT
# T4 sequence (P06241 1-534 isoform P06241-2 T339G): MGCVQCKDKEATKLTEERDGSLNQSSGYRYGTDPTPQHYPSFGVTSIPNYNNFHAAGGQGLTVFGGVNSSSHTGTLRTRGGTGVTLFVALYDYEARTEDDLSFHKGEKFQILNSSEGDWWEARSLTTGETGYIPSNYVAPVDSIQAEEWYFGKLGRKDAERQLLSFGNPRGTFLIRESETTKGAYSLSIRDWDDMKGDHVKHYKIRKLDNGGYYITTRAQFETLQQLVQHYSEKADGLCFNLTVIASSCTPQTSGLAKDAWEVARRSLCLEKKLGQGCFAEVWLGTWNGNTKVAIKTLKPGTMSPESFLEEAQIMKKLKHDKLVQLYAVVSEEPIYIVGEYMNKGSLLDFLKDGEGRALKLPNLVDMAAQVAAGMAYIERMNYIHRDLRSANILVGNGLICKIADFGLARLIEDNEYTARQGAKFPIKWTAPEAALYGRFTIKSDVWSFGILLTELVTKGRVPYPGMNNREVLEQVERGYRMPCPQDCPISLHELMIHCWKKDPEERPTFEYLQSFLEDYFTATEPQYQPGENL
# Excerpt: as §1
# PKCd = molecular target: T5, PKCd (Homo sapiens, UniProt Q05655); assay: In vitro kinase inhibition assay; type: biochemical; details: concentrations up to 300 mM
# T5 construct: 6-His; made in house
# T5 sequence (Q05655 whole entry, species assumed): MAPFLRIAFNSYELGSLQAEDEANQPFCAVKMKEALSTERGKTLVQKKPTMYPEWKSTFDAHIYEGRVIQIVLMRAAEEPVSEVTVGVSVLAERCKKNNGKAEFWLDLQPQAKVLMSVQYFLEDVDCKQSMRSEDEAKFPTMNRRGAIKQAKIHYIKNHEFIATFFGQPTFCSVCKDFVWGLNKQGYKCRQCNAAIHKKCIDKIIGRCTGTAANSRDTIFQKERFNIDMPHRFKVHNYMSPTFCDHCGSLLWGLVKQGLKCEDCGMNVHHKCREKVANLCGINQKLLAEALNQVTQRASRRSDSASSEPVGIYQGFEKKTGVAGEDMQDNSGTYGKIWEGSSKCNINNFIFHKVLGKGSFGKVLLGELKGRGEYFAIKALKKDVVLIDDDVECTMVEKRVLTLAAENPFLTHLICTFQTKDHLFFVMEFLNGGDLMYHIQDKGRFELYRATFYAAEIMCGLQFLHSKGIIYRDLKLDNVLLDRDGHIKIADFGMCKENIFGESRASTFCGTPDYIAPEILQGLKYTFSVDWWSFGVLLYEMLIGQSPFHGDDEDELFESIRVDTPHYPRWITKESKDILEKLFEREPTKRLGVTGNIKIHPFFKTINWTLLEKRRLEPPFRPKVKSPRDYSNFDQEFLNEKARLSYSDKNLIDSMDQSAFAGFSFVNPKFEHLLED
# WT Fyn = molecular target: T6, WT Fyn (Homo sapiens, UniProt P06241); assay: In vitro kinase inhibition assay; type: biochemical; design: in vitro inhibition of Fyn: dose or concentration left out as unconfirmed; details: for pIC50: Table 3
# T6 construct: GST (N); made in house; host or cells: E. coli DH5a, pGEX-KT
# T6 sequence (P06241 1-534 isoform P06241-2): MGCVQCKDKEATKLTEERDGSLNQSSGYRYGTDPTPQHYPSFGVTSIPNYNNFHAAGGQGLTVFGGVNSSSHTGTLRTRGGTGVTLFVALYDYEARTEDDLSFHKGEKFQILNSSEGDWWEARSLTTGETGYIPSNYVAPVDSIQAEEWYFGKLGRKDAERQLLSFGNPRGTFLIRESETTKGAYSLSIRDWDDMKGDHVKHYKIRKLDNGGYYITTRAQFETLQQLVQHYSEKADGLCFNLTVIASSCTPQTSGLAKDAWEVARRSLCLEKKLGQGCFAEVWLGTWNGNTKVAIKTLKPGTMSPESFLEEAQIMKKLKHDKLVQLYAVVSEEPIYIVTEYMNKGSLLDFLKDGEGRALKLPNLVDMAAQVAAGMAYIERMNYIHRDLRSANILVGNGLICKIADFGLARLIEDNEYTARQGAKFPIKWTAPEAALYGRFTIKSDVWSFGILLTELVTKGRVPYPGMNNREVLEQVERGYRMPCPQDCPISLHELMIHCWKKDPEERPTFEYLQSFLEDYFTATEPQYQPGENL
# wild-type cells = assay: Yeast growth; type: cell-based, Saccharomyces cerevisiae; details: concentrations that ablate Cdc28-as1 growth
# glycine mutants = assay: In vitro inhibition, all glycine mutant kinases of the panel; type: biochemical; details: read-out: IC 50's for all of the glycine mutants
# Cdc28·MBP-C1b2 = molecular target: T7, Cdc28·MBP-C1b2 (Saccharomyces cerevisiae, UniProt P00546); assay: 1-NM-PP1 IC50, Histone H1 phosphorylation; type: biochemical; details: text b289; read-out: IC50
# T7 construct: His6 (C); made in house; host or cells: Sf9 insect cells, baculovirus, co-infected with Cak1-HA3 (Cdc28-His6); bacteria (MBP-Clb2)
# T7 sequence (P00546 whole entry): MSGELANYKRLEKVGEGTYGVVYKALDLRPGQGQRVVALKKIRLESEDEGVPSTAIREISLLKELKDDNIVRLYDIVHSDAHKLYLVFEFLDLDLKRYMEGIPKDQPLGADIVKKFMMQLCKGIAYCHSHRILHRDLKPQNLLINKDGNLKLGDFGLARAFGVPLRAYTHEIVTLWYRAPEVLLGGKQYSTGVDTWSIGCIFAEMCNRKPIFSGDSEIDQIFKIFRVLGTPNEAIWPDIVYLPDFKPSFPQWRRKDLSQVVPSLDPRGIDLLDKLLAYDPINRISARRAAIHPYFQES
# T7 sequence (P24869 whole entry partner): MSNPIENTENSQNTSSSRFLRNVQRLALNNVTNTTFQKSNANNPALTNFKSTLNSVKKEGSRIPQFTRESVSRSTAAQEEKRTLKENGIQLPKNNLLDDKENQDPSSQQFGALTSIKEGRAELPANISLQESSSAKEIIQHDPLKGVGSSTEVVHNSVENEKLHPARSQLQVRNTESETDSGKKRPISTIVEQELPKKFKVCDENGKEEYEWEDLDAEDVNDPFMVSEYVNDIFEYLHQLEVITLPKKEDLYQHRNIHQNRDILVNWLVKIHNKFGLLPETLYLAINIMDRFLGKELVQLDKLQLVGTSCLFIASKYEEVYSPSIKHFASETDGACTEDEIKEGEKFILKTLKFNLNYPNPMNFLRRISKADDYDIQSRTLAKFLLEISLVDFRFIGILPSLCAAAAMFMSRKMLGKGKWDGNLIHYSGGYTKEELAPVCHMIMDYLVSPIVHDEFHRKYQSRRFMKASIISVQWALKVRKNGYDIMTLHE
# Description: (§2) Purification of Cdc28-His6, Cdc28-as1-His6, MBP-Clb2: Lysate was prepared from insect cells co-infected with baculoviruses encoding Cdc28-His6 or Cdc28-as1-His6 and Cak1-HA3 (151). Cdc28-His6 and Cdc28-as1-His6 were purified by metal affinity chromatography as described (152), followed by […]. MBP-Clb2 was purified from lysates of bacteria expressing MBP-Clb2 (a gift of R. Deshaies) on an amylose column (NEBL), followed by anion-exchange chromatography (Pharmacia Q Sepharose Fast Flow).
# (§3) Phosphate incorporation was determined at each inhibitor concentration by scintillation counting.
# Cdc28-as1·MBP-C1b2 = Cdc28-as1·MBP-C1b2 (Saccharomyces cerevisiae, UniProt P00546, F88G); assay: 1-NM-PP1 IC50, Histone H1 phosphorylation; type: biochemical; design: His6 (C); made in house; host or cells: Sf9 insect cells, baculovirus, co-infected with Cak1-HA3 (Cdc28-as1-His6); bacteria (MBP-Clb2); details: IC50, text b289
# Chain of Cdc28-as1·MBP-C1b2 (P00546 whole entry F88G): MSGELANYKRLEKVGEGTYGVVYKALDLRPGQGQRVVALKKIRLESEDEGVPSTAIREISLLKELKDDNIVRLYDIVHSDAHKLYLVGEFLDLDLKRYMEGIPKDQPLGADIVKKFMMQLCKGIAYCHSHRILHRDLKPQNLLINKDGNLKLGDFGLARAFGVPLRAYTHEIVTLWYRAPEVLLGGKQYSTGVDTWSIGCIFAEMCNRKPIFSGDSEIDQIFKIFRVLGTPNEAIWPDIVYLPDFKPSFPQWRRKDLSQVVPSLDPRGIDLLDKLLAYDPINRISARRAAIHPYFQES
# Chain of Cdc28-as1·MBP-C1b2 (P24869 whole entry, further chain): as the sequence (P24869 whole entry partner) above
# Description: as §2, §3
# fus3-as1 strain = assay: Yeast mating assay for Fus3 function; type: cell-based, Saccharomyces cerevisiae; details: 50 µM
# F80G CDK2 = molecular target: T8, F80G CDK2 (Homo sapiens, UniProt P24941, F80G); assay: In vitro inhibition of phosphorylation of an exogenous substrate, kinase panel; type: biochemical
# T8 construct: made in house
# F89G CAMK IIα = molecular target: T9, F89G CAMK IIα (Homo sapiens, UniProt Q9UQM7, F89G); assay: as above; type: biochemical
# T9 construct: made in house
# T9 sequence (Q9UQM7 whole entry F89G): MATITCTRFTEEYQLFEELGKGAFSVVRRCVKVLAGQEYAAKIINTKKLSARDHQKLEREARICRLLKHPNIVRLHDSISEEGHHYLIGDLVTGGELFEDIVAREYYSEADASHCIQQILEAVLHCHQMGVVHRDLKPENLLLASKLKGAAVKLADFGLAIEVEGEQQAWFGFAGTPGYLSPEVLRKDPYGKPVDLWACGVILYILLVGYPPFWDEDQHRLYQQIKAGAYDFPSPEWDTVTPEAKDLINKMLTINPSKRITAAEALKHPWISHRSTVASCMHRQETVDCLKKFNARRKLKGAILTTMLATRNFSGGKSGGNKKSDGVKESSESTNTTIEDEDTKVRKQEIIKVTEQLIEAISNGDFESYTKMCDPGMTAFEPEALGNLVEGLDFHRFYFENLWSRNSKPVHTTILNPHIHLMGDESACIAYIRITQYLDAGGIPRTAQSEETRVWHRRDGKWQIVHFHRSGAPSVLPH
# cdc28-as1 strain = assay: Yeast growth; type: cell-based, Saccharomyces cerevisiae; details: concentrations without effect on wild-type strains
# [9] = system: S. cerevisiae expressing either wild-type Fus3, Fus3-asl, or no Fus3; assay: Non-selective cytotoxicity control, plating of mating cultures on YPD; details: any of the three strains
# [10] = system: wild-type Fus3 expressing cells; assay: Yeast mating assay for Fus3 function; type: cell-based, Saccharomyces cerevisiae; details: all concentrations up to 50 µM
# [11] = system: panel of wild-type protein kinases; assay: In vitro inhibition, panel of wild-type protein kinases; type: biochemical
smiles,measurement,setting,value
"CC(C)(C)n1nc(-c2ccccc2)c2c(N)ncnc21 [2 (Figure 14), 4-Amino-1-tert-butyl-3-phenylpyrazolo [3,4-d] pyrimidine]",phosphotyrosine pattern of B cell stimulation,[1],significant reduction in tyrosine phosphorylation
same,pIC50,I338G v-Src [2],6.37
"CC(C)(C)n1nc(-c2cccc3ccccc23)c2c(N)ncnc21 [4-amino-1-(tert-butyl)-3-(1'-naphthyl)pyrazolo[3,4-d]pyrimidine]",tyrosine phosphorylation,"[3]; varying concentrations of 6a, 30 min",strongly diminishes tyrosine phosphorylation in a concentration dependent manner within minutes
same,tyrosine phosphorylation,Jurkat cells,no detectable decrease in phosphorylation
same,actin fibers and morphology,[4],indistinguishable from untreated wild type cells; also recorded: no effect on this non-mutant cell line
same,actin fibers and morphology,"[5]; 250 nM 6a, 16 hours",clear actin fibers and appear indistinguishable from normal NIH3T3 fibroblasts; also recorded: selectively acquire a flattened morphology and selectively regain actin stress
same,pIC50,WT v-Src,6.00
same,phosphotyrosine signal,[6]; 500nM 6a,no loss of phosphotyrosine signal
same,increase in affinity over previously optimized inhibitors of wild type kinases,I338G v-Src [7],20 fold
same,pIC50,I338G v-Src [2],8.82
CC(C)(C)n1nc(-c2ccccc2)c2c(N)ncnc21 [Compound 1],level of protein tyrosine phosphorylation,[8],some ability to serve as cellular protein tyrosine kinase substrates
"CC(C)(C)c1ccc(C(=O)Nc2ncnc3c2c(-c2ccccc2)nn3C(C)(C)C)cc1 [Compound 3g, 4-(p-tert-butyl)benzamido-1-tert-butyl-3-phenylpyrazolo[3,4-d]pyrimidine]",cellular IC50 relative to the in vitro value,[3],roughly 100 times
same,tyrosine phosphorylation,"[3]; 3g, 12 hours","dramatic diminution in the tyrosine phosphorylation of the putative v-Src substrate, p36; also recorded: blocks p36 phosphorylation in I338G v-Src"
same,pIC50,"[3]; Mus musculus, NIH3T3, read-out: IC50 for p36 phosphotyrosine signal",~4.30
same,inhibition of PKA,PKA,not detectably inhibited
same,selectivity for T339G Fyn over WT Fyn,T339G Fyn,greater than 300 fold
same,inhibition of PKCd,PKCd,not detectably inhibited
same,cell morphology and polymerized actin,"[5]; 3g, 48 hours","dramatic changes in cell morphology which are consistent with the reversal of transformation; also recorded: defined polymerized actin strings, strongly resembling the actin formations of non-transformed NIH3T3 fibroblasts; also recorded: selectively acquire a flattened morphology and selectively regain Actin stress fibers"
same,inhibition of WT v-Src,WT v-Src; limit of solubility,no inhibition
same,tyrosine phosphorylation,"[6]; 3g, 12 hours",no loss of tyrosine phosphorylation
same,phosphotyrosine pattern of B cell stimulation,[1],no effect on the phosphotyrosine pattern of B cell stimulation
same,inhibits the engineered v-Src more effectively than WT Fyn,I338G v-Src [7]; in vitro,over 700 times
same,selectivity for I338G v-Src with respect to wild type v-Src,I338G v-Src [7]; in vitro,≥ 1000 fold
same,pIC50,I338G v-Src [2]; read-out: IC50,6.37
same,pIC50,"I338G v-Src [2]; text b249, read-out: IC50",6.37
"CC(C)(C)n1nc(-c2ccc3ccccc3c2)c2c(N)ncnc21 [Compound 6b, 4-amino-1-(tert-butyl)-3-(2'-naphthyl)pyrazolo[3,4-d]pyrimidine]",increase in affinity over previously optimized inhibitors of wild type kinases,I338G v-Src [7],20 fold
"CC(C)(C)n1nc(-c2cccc(OCc3ccccc3)c2)c2c(N)ncnc21 [Compound 6d, 4-amino-1-(tert-butyl)-3-(m-benzyloxyphenyl)pyrazolo[3,4-d]pyrimidine]",selectivity for I338G v-Src with respect to wild type Fyn,I338G v-Src [7]; in vitro,> 100 fold
"CC(C)(C)n1nc(-c2cccc(OCc3c(Cl)cccc3Cl)c2)c2c(N)ncnc21 [Compound 6e, 4-amino-1-(tert-butyl)-3-(m-(2',6'-dichloro)benzyloxyphenyl) pyrazolo[3,4-d]pyrimidine]",pIC50,"WT v-Src; Table 3, read-out: vSrc",3.52
same,pIC50,"I338G v-Src [2]; Table 3, read-out: 1338G v-Src",6.89
"CC(C)(C)n1nc(Cc2ccc3c(c2)OCO3)c2c(N)ncnc21 [Compound 6f, 4-amino-1-(tert-butyl)-3-piperonylpyrazolo[3,4-d]pyrimidine]",selectivity for I338G v-Src with respect to wild type v-Src,I338G v-Src [7]; in vitro,~120 fold
"CC(C)(C)c1ccc(-c2nn(C(C)(C)C)c3ncnc(N)c23)cc1 [Compound 6g, 4-amino-1-(tert-butyl)-3-(p-tert-butylphenyl)pyrazolo[3,4 d]pyrimidine]",pIC50,"WT v-Src; Table 3, read-out: vSrc",4.19
same,pIC50,"I338G v-Src [2]; Table 3, read-out: 1338G v-Src",7.00
"CC(C)(C)n1nc(COc2cccc3ccccc23)c2c(N)ncnc21 [Compound 6i, 4-amino-1(tert-butyl)-3-(1'-naphthoxymethyl)pyrazolo[3,4-d]pyrimidine]",pIC50,"WT v-Src; Table 3, read-out: vSrc",< 3.52
same,selectivity for I338G v-Src with respect to wild type v-Src,I338G v-Src [7]; in vitro,> 6500 fold
same,pIC50,"I338G v-Src [2]; Table 3, read-out: 1338G v-Src",7.35
same,pIC50,WT Fyn,< 3.52
"CC(C)(C)n1nc(Cc2ccc3ccccc3c2)c2c(N)ncnc21 [Compound 6j, 4-amino-1-(tert-butyl)-3-(2'-naphthylmethyl)pyrazolo[3,4-d]pyrimidine]",pIC50,"WT v-Src; Table 3, read-out: vSrc",< 3.52
same,pIC50,"I338G v-Src [2]; Table 3, read-out: 1338G v-Src",7.70
same,pIC50,WT Fyn,< 3.52
CC(C)(C)n1nc(Cc2cccc3ccccc23)c2c(N)ncnc21 [Compound 11],growth of wild-type strains,wild-type cells,no effect on the growth of wild-type strains
same,pIC50,glycine mutants,> 8.00
same,pIC50,Cdc28·MBP-C1b2,< 4.30
same,pIC50,Cdc28-as1·MBP-C1b2,8.41
same,decrease in mating,fus3-as1 strain,85 fold
same,pIC50,F80G CDK2,8.30
same,pIC50,F89G CAMK IIα,8.10
same,growth of yeast which express Cdc28-as1,cdc28-as1 strain,completely ablated
same,cfu/mL on YPD plates,[9],No significant decrease in cfu/mL on YPD plates
same,diploid colonies,[10],0.6-1.1 x 10^5 cfu/ml
same,concentration below which none of the wild-type kinases tested are inhibited,[11],≥ 1 µM
OC[C@H]1O[C@@H](n2cnc3c(NOC4CCCC4)ncnc32)[C@H](O)[C@@H]1O [N-6 cyclopentyloxyadenosine],in vitro inhibition of WT v-Src,WT v-Src,no detectable in vitro inhibition
same,in vitro inhibition of Fyn,WT Fyn,no detectable in vitro inhibition

# Source: patent EP1321467A2, “High affinity inhibitors for target validation and uses thereof” (Princeton University, priority 1999, dated 2000)
